Test results taken from patent US20100144779A1, “Marine Alkalod Makaluvamines and Derivatives Thereof” (THE UAB RESEARCH FOUNDATION, priority 2007, published 2010).

Columns and labels:
Assay in all cases: NCI60 cell line screen (SRB)
Type in all cases: cell-based, human
A498 = details: A498, Renal Cancer, 48 h
Procedure: (§1) This panel implements the NCI60 cell line screen, including leukemia, non-small cell lung cancer, colon cancer, central nervous system cancer, melanoma, ovarian cancer, renal cancer, prostate cancer and breast cancer. The cell lines tested are specified in Table 3.
(§2) Generally, the human tumor cell lines of the cancer screening panel are grown in RPMI 1640 medium containing 5% fetal bovine serum and 2 mM L-glutamine. For a typical screening experiment, cells are inoculated into 96 well microtiter plates in 100 μL at plating densities ranging from 5,000 to 40,000 cells/well depending on the doubling time of individual cell lines. After cell inoculation, the microtiter plates are incubated at 37° C., 5% CO2, 95% air and 100% relative humidity for 24 h prior to addition of experimental drugs. After 24 h, two plates of each cell line are fixed in situ with TCA, to represent a measurement of the cell population for each cell line at the time of drug addition (Tz). Experimental drugs are solubilized in dimethyl sulfoxide at 400-fold the desired final maximum test concentration and stored frozen prior to use. At the time of drug addition, an aliquot of frozen concentrate is thawed and diluted to twice the desired final maximum test concentration with complete medium containing 50 μg/ml gentamicin. Additional four, 10-fold or ½ log serial dilutions are made to provide a total of five drug concentrations plus control. Aliquots of 100 μl of these different drug dilutions are added to the appropriate microtiter wells already containing 100 μl of medium, resulting in the required final drug concentrations.
(§3) Following drug addition, the plates are incubated for an additional 48 h at 37° C., 5% CO2, 95% air, and 100% relative humidity. For adherent cells, the assay is terminated by the addition of cold TCA. Cells are fixed in situ by the gentle addition of 50 μl of cold 50% (w/v) TCA (final concentration, 10% TCA) and incubated for 60 minutes at 4° C. The supernatant is discarded, and the plates are washed five times with tap water and air dried. Sulforhodamine B (SRB) solution (100 μl) at 0.4% (w/v) in 1% acetic acid is added to each well, and plates are incubated for 10 minutes at room temperature. After staining, unbound dye is removed by washing five times with 1% acetic acid and the plates are air dried. Bound stain is subsequently solubilized with 10 mM trizma base, and the absorbance is read on an automated plate reader at a wavelength of 515 nm. For suspension cells, the methodology is the same except that the assay is terminated by fixing settled cells at the bottom of the wells by gently adding 50 μl of 80% TCA (final concentration, 16% TCA). Using the seven absorbance measurements (time zero, Tz, control growth, (control), and test growth in the presence of drug at the five concentration levels (Ti)), the percentage growth is calculated at each of the drug concentrations levels. Percentage growth inhibition is calculated as:
(§4) [(Ti−Tz)/(C−Tz)]×100 for concentrations for which Ti>/=Tz
(§5) [(Ti−Tz)/Tz]×100 for concentrations for which Ti<Tz.

HOP-62 = details: HOP-62, Non-Small Cell Lung Cancer, 48 h
Procedure: as §1, §2, §3, §4, §5

HL-60 = details: HL-60, Leukemia, 48 h
Procedure: as §1, §2, §3, §4, §5

DU-145 = details: DU-145, Prostate Cancer, 48 h
Procedure: as §1, §2, §3, §4, §5

UACC-257 = details: UACC-257, Melanoma, 48 h
Procedure: as §1, §2, §3, §4, §5

KM12 = details: KM12, Colon Cancer, 48 h
Procedure: as §1, §2, §3, §4, §5

MDA-MB-435 = details: MDA-MB-435, Breast Cancer, 48 h
Procedure: as §1, §2, §3, §4, §5

SR = details: Leukemia, 48 h
Procedure: as §1, §2, §3, §4, §5

HCT-15 = details: HCT-15, Colon Cancer, 48 h
Procedure: as §1, §2, §3, §4, §5

MALME-3M = details: Melanoma, 48 h
Procedure: as §1, §2, §3, §4, §5

BT-459 = details: BT-459, Breast Cancer, 48 h
Procedure: as §1, §2, §3, §4, §5

SNB-75 = details: SNB-75, CNS Cancer, 48 h
Procedure: as §1, §2, §3, §4, §5

M14 = details: M14, Melanoma, 48 h
Procedure: as §1, §2, §3, §4, §5

HT-29 = details: HT-29, Colon Cancer, 48 h
Procedure: as §1, §2, §3, §4, §5

SW-620 = details: SW-620, Colon Cancer, 48 h
Procedure: as §1, §2, §3, §4, §5

HS 578T = details: Breast Cancer, 48 h
Procedure: as §1, §2, §3, §4, §5

SK-MEL-28 = details: SK-MEL-28, Melanoma, 48 h
Procedure: as §1, §2, §3, §4, §5

NCI-H23 = details: NCI-H23, Non-Small Cell Lung Cancer, 48 h
Procedure: as §1, §2, §3, §4, §5

SF-268 = details: SF-268, CNS Cancer, 48 h
Procedure: as §1, §2, §3, §4, §5

OVCAR8 = details: OVCAR8, Ovarian Cancer, 48 h
Procedure: as §1, §2, §3, §4, §5

HOP-92 = details: HOP-92, Non-Small Cell Lung Cancer, 48 h
Procedure: as §1, §2, §3, §4, §5

T-47D = details: Breast Cancer, 48 h
Procedure: as §1, §2, §3, §4, §5

CCRF-CEM = details: Leukemia, 48 h
Procedure: as §1, §2, §3, §4, §5

PC-3 = details: PC-3, Prostate Cancer, 48 h
Procedure: as §1, §2, §3, §4, §5

NCI-H552 = details: NCI-H552, Non-Small Cell Lung Cancer, 48 h
Procedure: as §1, §2, §3, §4, §5

RXF 393 = details: RXF 393, Renal Cancer, 48 h
Procedure: as §1, §2, §3, §4, §5

Compound: CNC1=CC2=NCCc3c[nH]c(c32)C1=O [Compound 4a]
- GI50 (A498): 20700 nM
- GI50 (HOP-62): 1280 nM
- GI50 (HL-60): 2540 nM
- GI50 (DU-145): 2290 nM
- GI50 (UACC-257): 2000 nM
- GI50 (KM12): 3830 nM
- GI50 (MDA-MB-435): 1800 nM
- GI50 (SR): 3120 nM
- GI50 (HCT-15): 5090 nM
- GI50 (MALME-3M): 1210 nM
- GI50 (BT-459): 7380 nM
- GI50 (SNB-75): 1380 nM
- GI50 (M14): 2570 nM
- GI50 (HT-29): 2540 nM
- GI50 (SW-620): 3100 nM
- GI50 (HS 578T): 10200 nM
- GI50 (SK-MEL-28): 6620 nM
- GI50 (NCI-H23): 2460 nM
- GI50 (SF-268): 2090 nM
- GI50 (OVCAR8): 3190 nM
- GI50 (HOP-92): 1280 nM
- GI50 (T-47D): 3500 nM
- GI50 (CCRF-CEM): 2970 nM
- GI50 (PC-3): 3610 nM
- GI50 (NCI-H552): 4130 nM
- GI50 (RXF 393): 4220 nM

Compound: O=C1C(NCc2ccccc2)=CC2=NCCc3c[nH]c1c32 [Compound 4c]
- GI50 (A498): 16500 nM
- GI50 (HOP-62): 3700 nM
- GI50 (HL-60): 325 nM
- GI50 (DU-145): 1790 nM
- GI50 (UACC-257): 315 nM
- GI50 (KM12): 2060 nM
- GI50 (MDA-MB-435): 2030 nM
- GI50 (SR): 1750 nM
- GI50 (HCT-15): 1390 nM
- GI50 (MALME-3M): 300 nM
- GI50 (BT-459): 4580 nM
- GI50 (SNB-75): 1650 nM
- GI50 (M14): 1280 nM
- GI50 (HT-29): 488 nM
- GI50 (SW-620): 1070 nM
- GI50 (HS 578T): 5200 nM
- GI50 (SK-MEL-28): 7420 nM
- GI50 (NCI-H23): 1470 nM
- GI50 (SF-268): 2830 nM
- GI50 (OVCAR8): 2080 nM
- GI50 (HOP-92): 308 nM
- GI50 (T-47D): 523 nM
- GI50 (CCRF-CEM): 900 nM
- GI50 (PC-3): 1540 nM
- GI50 (NCI-H552): 1690 nM
- GI50 (RXF 393): 2090 nM

Compound: O=C(O)C(F)(F)F.O=C1C(NCCc2ccc3c(c2)OCO3)=CC2=NCCc3c[nH]c1c32 [Compound 6]
- GI50 (A498; Homo sapiens): 6030 nM
- GI50 (HOP-62; Homo sapiens): 2500 nM
- GI50 (HL-60; Homo sapiens): 1920 nM
- GI50 (DU-145; Homo sapiens): 1350 nM
- GI50 (UACC-257; Homo sapiens): 2970 nM
- GI50 (KM12; Homo sapiens): 2290 nM
- GI50 (MDA-MB-435; Homo sapiens): 1890 nM
- GI50 (SR; Homo sapiens): 2500 nM
- GI50 (HCT-15; Homo sapiens): 1860 nM
- GI50 (MALME-3M; Homo sapiens): 343 nM
- GI50 (BT-459; Homo sapiens): 3070 nM
- GI50 (SNB-75; Homo sapiens): 3490 nM
- GI50 (M14; Homo sapiens): 1430 nM
- GI50 (HT-29; Homo sapiens): 2070 nM
- GI50 (SW-620; Homo sapiens): 3440 nM
- GI50 (HS 578T; Homo sapiens): 2860 nM
- GI50 (SK-MEL-28; Homo sapiens): 4910 nM
- GI50 (NCI-H23; Homo sapiens): 1690 nM
- GI50 (SF-268; Homo sapiens): 3660 nM
- GI50 (OVCAR8; Homo sapiens, OVCAR-8): 1620 nM
- GI50 (HOP-92; Homo sapiens): 5450 nM
- GI50 (T-47D; Homo sapiens, T47D): 2970 nM
- GI50 (CCRF-CEM; Homo sapiens): 2970 nM
- GI50 (PC-3; Homo sapiens): 5930 nM
- GI50 (NCI-H552; Homo sapiens): 2620 nM

Compound: COc1ccc(CCNC2=CC3=NCCc4c[nH]c(c43)C2=O)cc1OC.O=C(O)C(F)(F)F [Compound 20]
- GI50 (A498; Homo sapiens): 7240 nM
- GI50 (HOP-62; Homo sapiens): 5170 nM
- GI50 (HL-60; Homo sapiens): 3140 nM
- GI50 (DU-145; Homo sapiens): 2810 nM
- GI50 (UACC-257; Homo sapiens): 3070 nM
- GI50 (KM12; Homo sapiens): 2230 nM
- GI50 (MDA-MB-435; Homo sapiens): 2050 nM
- GI50 (SR; Homo sapiens): 5690 nM
- GI50 (HCT-15; Homo sapiens): 2650 nM
- GI50 (MALME-3M; Homo sapiens): 249 nM
- GI50 (BT-459; Homo sapiens): 4530 nM
- GI50 (SNB-75; Homo sapiens): 5220 nM
- GI50 (M14; Homo sapiens): 2260 nM
- GI50 (HT-29; Homo sapiens): 2540 nM
- GI50 (SW-620; Homo sapiens): 3090 nM
- GI50 (HS 578T; Homo sapiens): 5040 nM
- GI50 (SK-MEL-28; Homo sapiens): 10100 nM
- GI50 (NCI-H23; Homo sapiens): 2000 nM
- GI50 (SF-268; Homo sapiens): < 10 nM
- GI50 (OVCAR8; Homo sapiens, OVCAR-8): 1790 nM
- GI50 (HOP-92; Homo sapiens): 1030 nM
- GI50 (T-47D; Homo sapiens, T47D): 2490 nM
- GI50 (CCRF-CEM; Homo sapiens): 10600 nM
- GI50 (PC-3; Homo sapiens): 7620 nM
- GI50 (NCI-H552; Homo sapiens): 2240 nM

Compound: O=C(O)C(F)(F)F.O=C1C(NCc2ccc(F)cc2)=CC2=NCCc3c[nH]c1c32 [Compound 28]
- GI50 (A498; Homo sapiens): 3110 nM
- GI50 (HOP-62; Homo sapiens): 3790 nM
- GI50 (HL-60; Homo sapiens): 1530 nM
- GI50 (DU-145; Homo sapiens): 1080 nM
- GI50 (UACC-257; Homo sapiens): 189 nM
- GI50 (KM12; Homo sapiens): 2020 nM
- GI50 (MDA-MB-435; Homo sapiens): 1750 nM
- GI50 (SR; Homo sapiens): 1210 nM
- GI50 (HCT-15; Homo sapiens): 1480 nM
- GI50 (MALME-3M; Homo sapiens): 208 nM
- GI50 (BT-459; Homo sapiens): 3140 nM
- GI50 (SNB-75; Homo sapiens): 5200 nM
- GI50 (M14; Homo sapiens): 1440 nM
- GI50 (HT-29; Homo sapiens): 596 nM
- GI50 (SW-620; Homo sapiens): 1820 nM
- GI50 (HS 578T; Homo sapiens): 44000 nM
- GI50 (SK-MEL-28; Homo sapiens): 5780 nM
- GI50 (NCI-H23; Homo sapiens): 521 nM
- GI50 (SF-268; Homo sapiens): 1660 nM
- GI50 (OVCAR8; Homo sapiens, OVCAR-8): 1970 nM
- GI50 (HOP-92; Homo sapiens): 1680 nM
- GI50 (T-47D; Homo sapiens, T47D): 633 nM
- GI50 (CCRF-CEM; Homo sapiens): 1430 nM
- GI50 (PC-3; Homo sapiens): 1570 nM
- GI50 (NCI-H552; Homo sapiens): 2000 nM
- GI50 (RXF 393; Homo sapiens): ≤ 10 nM
